In paper PMC7039992, “The structural basis of fungal glucuronoyl esterase activity on natural substrates” (Nature Communications, 2020):
Where “and” joins values, the source holds several entries; their conditions need not be identical. Identical values can stand only once.

Columns and labels:
[1] = molecular target: T1, dΔS270A CuGE (inactive truncated deglycosylated variant) (Cerrena unicolor, UniProt A0A0A7EQR3, S286A); assay: Microscale thermophoresis (MST, LabelFree) binding of soluble ligands to dΔS270A
T1 construct: truncated CuGE (residues G79-T458) corresponding to the catalytic domain only; His6 (C); TEV protease cleavage site (C); made in house; host or cells: Pichia pastoris X-33
Method: (§1) Binding affinities for the soluble ligands U^m4XX^-OH (O-UXXR, MEGAZYMES), MeGlcA (4-O-methyl-D-glucuronic acid, MM46686, Carbosynth, Crompton UK), and MeMeGlcA (4-O-methyl-D-glucopyranosyluronate, purchased from Institute of Chemistry, Slovak Academy of Sciences, Bratislava, Slovakia) were measured by MST. The protein stocks, dΔS207A and ΔWT, were adjusted to 200 nM with 100 mM sodium acetate buffer pH 5 supplemented with 0.1% Pluronic F-127. Ligand stocks (100 mM U^m4XX^-OH, 43 mM MeGlcA and 250 mM MeMeGlcA) were prepared in 100 mM sodium acetate buffer pH 5, and for each ligand a series of 16 1:1 dilutions was prepared using the same buffer. For the measurement, each ligand dilution was mixed with one volume of protein, which led to a final protein concentration of 100 nM and final ligand concentrations in the mM to nM range. After 10 min incubation followed by centrifugation at 10,000 × g for 10 min, the samples were loaded into Monolith NT.LabelFree zero-background capillaries (NanoTemper Technologies). The MST experiment was performed with a Monolith NT.LabelFree instrument (NanoTemper Technologies) at 25 °C using 30% LED power and medium MST power. […] Final ligand concentration ranges used in the analysis of the MST signal were: U^m4XX^-OH 25 mM to 1.53 μM, MeGlcA 10.8 mM to 656 nM and MeMeGlcA 15.6 mM to 3.81 μM. For each ligand-binding curve, data from at least three independently pipetted measurements were included in the analysis with the MO. Affinity Analysis software (version 2.3, NanoTemper Technologies) using the signal from an MST-on time of 5 s.

[2] = system: CuGE catalytic domain crystals; assay: Crystal soaking with ligands; type: binding, Cerrena unicolor; settings: concentrations up to 0.5 M
Method: The deglycosylated CuGE variants dWT and dΔS207A were both screened for crystallization. However, all crystals obtained contain the catalytic domain only, as crystals formed in experiments with the full-length enzyme (dWT) turned out to be a proteolytic fragment lacking the CBM1 and linker region (Δ*dWT). […] Crystallization and ligand soak conditions are summarized in Supplementary Table 1. The vast majority of crystals formed at 4 °C and with high molecular weight polymers (SOKALAN CP7, PEG 10,000 or PEG 8000) as precipitants. Crystals were cryoprotected by brief soaks in either reservoir or ligand stock solutions supplemented with 26% glycerol and flash-frozen in liquid nitrogen. […] A refinement protocol using the maximum-likelihood target, real-space refinement, refinement of coordinates, individual isotropic temperature factors and translation-liberation-screw (TLS) refinement using TLS groups determined by the PHENIX software was applied. […]

[3] = molecular target: T2, ΔWT CuGE (truncated, catalytic domain only) (Cerrena unicolor, UniProt A0A0A7EQR3); assay: Microscale thermophoresis (MST, LabelFree) binding of soluble ligands to ΔWT; settings: for Fnorm Average: MST
T2 construct: truncated CuGE (residues G79-T458) corresponding to the catalytic domain only; His6 (C); TEV protease cleavage site (C); made in house; host or cells: Pichia pastoris X-33
Method: as §1

[4] = Stability measurements: apparent thermal unfolding temperature (Ti) from intrinsic fluorescence, Tycho NT.6; type: physicochemical, Cerrena unicolor; settings: 20 mM sodium acetate buffer pH 5
Method: In order to evaluate the stability of the different CuGE variants apparent unfolding temperatures (Ti) were monitored based on changes in intrinsic fluorescence using a Tycho NT.6 instrument (NanoTemper Technologies). The measurements were made in 20 mM sodium acetate buffer pH 5, protein concentrations in the range 0.07–0.3 mg mL^−1.

In the case of CO[C@@H]([C@H](O)[C@@H](O)C=O)[C@H](O)C(=O)O [MeGlcA, 4-O-methyl-D-glucuronic acid], the “dissociation constant, times higher compared to dΔS270A:U^m4XX^-OH” value ([1]; MST) is reported as ~ 10 times, the “Fnorm Average” value ([1]; MST, ligand Conc 6.56128e-7 M) is reported as 892.97 and the “Fnorm Average” value ([1]; MST, ligand Conc 1.31226e-6 M) is reported as 893.37. For the same molecule, the “Fnorm Average” value ([1]; MST, ligand Conc 2.62451e-6 M) was 892.22, the “Fnorm Average” value ([1]; MST, ligand Conc 5.24902e-6 M) was 893.19 and the “Fnorm Average” value ([1]; MST, ligand Conc 1.0498e-5 M) was 892.96. For the same molecule, the “Fnorm Average” value ([1]; MST, ligand Conc 2.09961e-5 M) was 892.61, the “Fnorm Average” value ([1]; MST, ligand Conc 4.19922e-5 M) was 895.02 and the “Fnorm Average” value ([1]; MST, ligand Conc 8.39844e-5 M) was 893.94. The “Fnorm Average” value ([1]; MST, ligand Conc 0.000167969 M) was 894.55, the “Fnorm Average” value ([1]; MST, ligand Conc 0.000335937 M) was 893.65 and the “Fnorm Average” value ([1]; MST, ligand Conc 0.000671875 M) was 895.68. For the same molecule, the “Fnorm Average” value ([1]; MST, ligand Conc 0.00134375 M) was 895.81, the “Fnorm Average” value ([1]; MST, ligand Conc 0.0026875 M) was 897.59 and the “Fnorm Average” value ([1]; MST, ligand Conc 0.005375 M) was 898.85. The “Fnorm Average” value ([1]; MST, ligand Conc 0.01075 M) was 901.30.

With COC(=O)[C@H]1OC(O)[C@H](O)[C@@H](O)[C@@H]1OC (stereo partly drawn) [MeMeGlcA, methyl ester of 4-O-methyl-D-glucuronic acid] the Kd [1] was > 10 mM, the “Fnorm Average” value ([1]; MST, ligand Conc 3.8147e-6 M) was 893.87 and the “Fnorm Average” value ([1]; MST, ligand Conc 7.62939e-6 M) was 892.81. The “Fnorm Average” value ([1]; MST, ligand Conc 1.52588e-5 M) was 893.60, the “Fnorm Average” value ([1]; MST, ligand Conc 3.05176e-5 M) was 893.00 and the “Fnorm Average” value ([1]; MST, ligand Conc 6.10352e-5 M) was 891.24. For the same molecule, the “Fnorm Average” value ([1]; MST, ligand Conc 0.00012207 M) was 892.80, the “Fnorm Average” value ([1]; MST, ligand Conc 0.000244141 M) was 892.27 and the “Fnorm Average” value ([1]; MST, ligand Conc 0.000488281 M) was 892.23. For the same molecule, the “Fnorm Average” value ([1]; MST, ligand Conc 0.000976562 M) was 892.05, the “Fnorm Average” value ([1]; MST, ligand Conc 0.00195312 M) was 893.14 and the “Fnorm Average” value ([1]; MST, ligand Conc 0.00390625 M) was 894.69. The “Fnorm Average” value ([1]; MST, ligand Conc 0.0078125 M) was 894.83, the “Fnorm Average” value ([1]; MST, ligand Conc 0.015625 M) was 899.63 and the “complex formation on crystal soak” value [2] was “did not result in a complex”.

With CO[C@H]1[C@H](O)[C@@H](O)[C@@H](O[C@H]2[C@H](O[C@@H]3CO[C@@H](O[C@H](CO)[C@H](O)[C@@H](O)CO)[C@H](O)[C@H]3O)OC[C@@H](O)[C@@H]2O)O[C@@H]1C(=O)O [U^m4XX^-OH, aldotetrauronic acid] the “Fnorm Average” value ([1]; MST, ligand Conc 1.52588e-6 M) was 893.61, the “Fnorm Average” value ([1]; MST, ligand Conc 3.05176e-6 M) was 893.69 and the “Fnorm Average” value ([1]; MST, ligand Conc 6.10352e-6 M) was 893.20. For the same molecule, the “Fnorm Average” value ([1]; MST, ligand Conc 1.2207e-5 M) was 894.05, the “Fnorm Average” value ([1]; MST, ligand Conc 2.44141e-5 M) was 893.89 and the “Fnorm Average” value ([1]; MST, ligand Conc 4.88281e-5 M) was 895.55. The “Fnorm Average” value ([1]; MST, ligand Conc 9.76563e-5 M) was 898.89, the “Fnorm Average” value ([1]; MST, ligand Conc 0.000195313 M) was 901.02 and the “Fnorm Average” value ([1]; MST, ligand Conc 0.000390625 M) was 904.70. The “Fnorm Average” value ([1]; MST, ligand Conc 0.00078125 M) was 908.26, the “Fnorm Average” value ([1]; MST, ligand Conc 0.0015625 M) was 908.91 and the “Fnorm Average” value ([1]; MST, ligand Conc 0.003125 M) was 910.47. The “Fnorm Average” value ([1]; MST, ligand Conc 0.00625 M) was 911.05, the “Fnorm Average” value ([1]; MST, ligand Conc 0.0125 M) was 912.09 and the “Fnorm Average” value ([1]; MST, ligand Conc 0.025 M) was 909.72. The Kd [3] was 5 mM, the “Fnorm Average” value ([3]; ligand Conc 1.52588e-6 M) was 893.29 and the “Fnorm Average” value ([3]; ligand Conc 3.05176e-6 M) was 893.55. For the same molecule, the “Fnorm Average” value ([3]; ligand Conc 6.10352e-6 M) was 893.63, the “Fnorm Average” value ([3]; ligand Conc 1.2207e-5 M) was 892.18 and the “Fnorm Average” value ([3]; ligand Conc 2.44141e-5 M) was 892.73. The “Fnorm Average” value ([3]; ligand Conc 4.88281e-5 M) was 894.37, the “Fnorm Average” value ([3]; ligand Conc 9.76563e-5 M) was 893.73 and the “Fnorm Average” value ([3]; ligand Conc 0.000195313 M) was 893.94. For the same molecule, the “Fnorm Average” value ([3]; ligand Conc 0.000390625 M) was 894.62, the “Fnorm Average” value ([3]; ligand Conc 0.00078125 M) was 893.24 and the “Fnorm Average” value ([3]; ligand Conc 0.0015625 M) was 896.88. For the same molecule, the “Fnorm Average” value ([3]; ligand Conc 0.003125 M) was 900.40, the “Fnorm Average” value ([3]; ligand Conc 0.00625 M) was 905.36 and the “Fnorm Average” value ([3]; ligand Conc 0.0125 M) was 907.85. The “Fnorm Average” value ([3]; ligand Conc 0.025 M) was 907.66.

B1: dWT: enzymatically deglycosylated full-length WT CuGE (protein)
chain: QASAPQWGQCGGIGWTGPTACPSGWACQQLNAYYSQCLQGAAPAPARTTAAPPPPPATTAAPPPPTTSAPTGSSPVAGACGAIASTVPNYNNAKLPDPFTFANGTALRTKADWSCRRAEISALIQNYEAGTLPPKPPVVTASFSKSGNTGTLAITAGLSNSQTIKFSPTISYPSGTPPANGWPLIIAYEGGSIPIPAGVATLTYSNSDMAQQNSASSRGQGLFYQLYGSTHSASAMTAWVWGVSRIIDALEMTPTAQINTQRIGVTGCSRDGKGALMAGAFEERIALTIPQESGSGGDACWRLSKYEIDNGNQVQDAVEIVGENVWFSTNFNNYVQKLPTVPEDHHLLAAMVAPRAMISFENTDYLWLSPMSSFGCMTAAHTVWQGLGIADSHGFAQVGGHAHCAWPSSLTPQLNAFINRFLLDQSATTNVFTTNNQFGKVQWNAANWITWTTPTLT
modifications: N-glycosylation at N104 trimmed with Endo H; O-glycosylation in the linker region trimmed with alpha-1-2,3,6 mannosidase; left off: c-myc epitope, C-terminal, state not stated | His6, C-terminal, stat
notes: enzymatically deglycosylated full-length WT CuGE
For B1, the “Ti, single measurements” value ([4]; individual replicates) was 75.9 °C and 75.7 °C and 75.8 °C and the “Ti, apparent thermal unfolding temperature (mean)” value ([4]; protein 0.07–0.3 mg mL^−1, intrinsic fluorescence) was 75.8 °C.
